Broadly, the IC50 is the concentration needed to halve the response being measured. High values mean weaker potency in that assay, low ones greater potency in that assay.

A value given as a limit tells only on which side of the number the result lay.

Drawing on patent US20250144105A1, “CDK9 INHIBITORS” (Origenis GmbH, priority 2022, published 2025), this text covers IC50 for 28 compounds.

This assay concerns the target T1, CDK9/CyclinT1 (Homo sapiens, UniProt P50750).
T1 construct: purchased ProQinase/Reaction Biology, USA 0371-0345-1
Put plainly: CDK9/T1 ADPGlo kinase assay for inhibitory activity. It is filed as biochemical. The note with it: CDK9/CyclinT1 6 nM, PDKtide 40 microM, ATP 10 microM, 120 min at RT, luminescence readout. On the procedure:
The testing compound was evaluated in 12 concentrations in a 1:3 dilution series, starting from 5 microM as the highest concentration.
In a white 384 microplate (Greiner bio-one, Austria #784904,) with 2 microL of 3-fold concentrated CDK9/CyclinT1 (ProQinase/Reaction Biology, USA #0371-0345-1, LOT.: 012), final concentration (f.c.) 6 nM, in 1× kinase buffer, 2 microL of compound (3× fold concentrated in f.c. 1.66% DMSO/H2O) was added and incubated at Room Temperature (RT) for 10 min. Then 2 microL of Substrate/ATP-Mix (3× PDKtide f.c. 40 microM, SignalChem Biotech, Canada via Biozol, Eching, Germany #P10-58, LOT.: L2230-7 and 3× UltraPure ATP f.c. 10 microM (ADP Glo Kinase assay, Promega GmbH, Germany #V9102)) were added, mixed and incubated for 120 min at RT.
After incubation time, 5 microL of ADP Glo reagent (ready to use, ADP Glo Kinase assay, Promega GmbH, Germany #V9102) were added, mixed and incubated for 40 min at RT. In the last step, 10 microL of ADP Glo Detection reagent (ready to use, ADP Glo Kinase assay, Promega GmbH, Germany #V9102) were added, mixed and incubated for 30 min at RT. GloMax Discover GM3000 Reader (Promega GmbH, Germany 9700000249) was used for the readout.
The inhibitor concentration was plotted against the luminescence to determine the IC50 using XLFit 5.5 (IDBS, Guildford) to fit to a sigmoidal dose response curve with a variable slope.

T1 sequence (P50750 whole entry): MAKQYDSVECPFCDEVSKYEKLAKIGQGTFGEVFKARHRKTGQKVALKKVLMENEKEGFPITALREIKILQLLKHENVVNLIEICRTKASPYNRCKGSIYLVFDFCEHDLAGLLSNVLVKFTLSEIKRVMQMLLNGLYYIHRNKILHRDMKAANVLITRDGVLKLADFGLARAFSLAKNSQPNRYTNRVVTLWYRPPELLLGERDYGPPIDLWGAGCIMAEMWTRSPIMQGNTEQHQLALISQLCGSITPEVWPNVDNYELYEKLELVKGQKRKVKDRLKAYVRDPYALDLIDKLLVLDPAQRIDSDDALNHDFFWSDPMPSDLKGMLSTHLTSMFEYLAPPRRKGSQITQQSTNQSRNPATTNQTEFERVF
T1 sequence (O60563 whole entry partner): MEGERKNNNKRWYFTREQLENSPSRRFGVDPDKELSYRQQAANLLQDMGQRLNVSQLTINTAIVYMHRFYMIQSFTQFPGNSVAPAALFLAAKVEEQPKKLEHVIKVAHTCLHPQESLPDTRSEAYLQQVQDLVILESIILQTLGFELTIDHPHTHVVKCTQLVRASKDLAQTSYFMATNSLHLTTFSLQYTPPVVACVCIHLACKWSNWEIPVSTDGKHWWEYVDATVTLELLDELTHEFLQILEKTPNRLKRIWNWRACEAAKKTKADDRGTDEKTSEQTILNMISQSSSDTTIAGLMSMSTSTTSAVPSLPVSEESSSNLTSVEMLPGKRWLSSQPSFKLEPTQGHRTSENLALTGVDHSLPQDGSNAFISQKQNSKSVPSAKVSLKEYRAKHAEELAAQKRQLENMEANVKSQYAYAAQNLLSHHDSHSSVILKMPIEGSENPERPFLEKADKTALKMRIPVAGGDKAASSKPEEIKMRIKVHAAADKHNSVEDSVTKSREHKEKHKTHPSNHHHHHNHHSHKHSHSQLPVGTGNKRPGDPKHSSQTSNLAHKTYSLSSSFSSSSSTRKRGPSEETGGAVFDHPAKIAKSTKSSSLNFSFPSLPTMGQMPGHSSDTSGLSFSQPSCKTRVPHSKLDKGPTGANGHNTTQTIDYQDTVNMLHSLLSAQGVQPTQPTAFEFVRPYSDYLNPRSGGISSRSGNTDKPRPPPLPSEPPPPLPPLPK

`Fc1cccc(F)c1-c1nc(N[C@H]2CC[C@H](N3CCOCC3)CC2)c2ncc(Cl)n2n1` [Example #1, 7-chloro-2-(2,6-difluorophenyl)-N-((1r,4r)-4-morpholinocyclohexyl)imidazo[2,1-f][1,2,4]triazin-4-amine] showed an IC50 of less than 20 nM.

`CN(C)[C@H]1CC[C@H](Nc2nc(-c3c(F)cccc3F)nn3c(Cl)cnc23)CC1` [Example #3, (1r,4r)-N1-(7-chloro-2-(2,6-difluorophenyl)imidazo[2,1-f][1,2,4]triazin-4-yl)-N4,N4-dimethylcyclohexane-1,4-diamine] yielded an IC50 of less than 20 nM.

Compound `N[C@H]1CC[C@H](Nc2nc(-c3c(F)cccc3F)nn3c(Cl)cnc23)CC1` [Example #4, (1r,4r)-N1-(7-chloro-2-(2,6-difluorophenyl)imidazo[2,1-f][1,2,4]triazin-4-yl)cyclohexane-1,4-diamine] came in with an IC50 of less than 20 nM.

For `Fc1cccc(F)c1-c1nc(N[C@H]2CC[C@H](N3CCCCC3)CC2)c2ncc(Cl)n2n1` [Example #5, 7-chloro-2-(2,6-difluorophenyl)-N-((1r,4r)-4-(piperidin-1-yl)cyclohexyl)imidazo[2,1-f][1,2,4]triazin-4-amine], the IC50 was less than 20 nM.

In turn, `Fc1cccc(F)c1-c1nc(N[C@H]2CC[C@H](N3CCCC3)CC2)c2ncc(Cl)n2n1` [Example #6, 7-chloro-2-(2,6-difluorophenyl)-N-((1r,4r)-4-(pyrrolidin-1-yl)cyclohexyl)imidazo[2,1-f][1,2,4]triazin-4-amine] had an IC50 of less than 20 nM.

In turn, `COCCN[C@H]1CC[C@H](Nc2nc(-c3c(F)cccc3F)nn3c(Cl)cnc23)CC1` [Example #7, (1r,4r)-N1-(7-chloro-2-(2,6-difluorophenyl)imidazo[2,1-f][1,2,4]triazin-4-yl)-N4-(2-methoxyethyl)cyclohexane-1,4-diamine] gave an IC50 of less than 20 nM.

Compound `FCCN[C@H]1CC[C@H](Nc2nc(-c3c(F)cccc3F)nn3c(Cl)cnc23)CC1` [Example #8, (1r,4r)-N1-(7-chloro-2-(2,6-difluorophenyl)imidazo[2,1-f][1,2,4]triazin-4-yl)-N4-(2-fluoroethyl)cyclohexane-1,4-diamine] came in with an IC50 of less than 20 nM.

As to `FCCCN[C@H]1CC[C@H](Nc2nc(-c3c(F)cccc3F)nn3c(Cl)cnc23)CC1` [Example #9, (1r,4r)-N1-(7-chloro-2-(2,6-difluorophenyl)imidazo[2,1-f][1,2,4]triazin-4-yl)-N4-(3-fluoropropyl)cyclohexane-1,4-diamine], the IC50 is less than 20 nM.

Take `CC(C)N1CCC(Nc2nc(-c3c(F)cccc3F)nn3c(Cl)cnc23)CC1` [Example #10, 7-chloro-2-(2,6-difluorophenyl)-N-(1-isopropylpiperidin-4-yl)imidazo[2,1-f][1,2,4]triazin-4-amine]: the IC50 was less than 200 nM.

`Fc1cccc(F)c1-c1nc(NC2CCN(C3CCOCC3)CC2)c2ncc(Cl)n2n1` [Example #11, 7-chloro-2-(2,6-difluorophenyl)-N-(1-(tetrahydro-2H-pyran-4-yl)piperidin-4-yl)imidazo[2,1-f][1,2,4]triazin-4-amine] registered an IC50 of less than 200 nM.

With `Fc1cccc(F)c1-c1nc(NC2CCN(C3CCCC3)CC2)c2ncc(Cl)n2n1` [Example #12, 7-chloro-N-(1-cyclopentylpiperidin-4-yl)-2-(2,6-difluorophenyl)imidazo[2,1-f][1,2,4]triazin-4-amine], the half-maximal inhibitory concentration (IC50) is less than 200 nM.

`CN1CCC(Nc2nc(-c3c(F)cccc3F)nn3c(Cl)cnc23)CC1` [Example #13, 7-chloro-2-(2,6-difluorophenyl)-N-(1-methylpiperidin-4-yl)imidazo[2,1-f][1,2,4]triazin-4-amine] came in with a concentration for half-maximal inhibition (IC50) of less than 20 nM.

The compound `CN1CCCCC1CNc1nc(-c2c(F)cccc2F)nn2c(Cl)cnc12` (stereo not shown) [Example #14, [7-Chloro-2-(2,6-difluoro-phenyl)-imidazo[2,1-f][1,2,4]triazin-4-yl]-(1-methyl-piperidin-2-ylmethyl)-amine] returned an IC50 of less than 200 nM.

On to `CCN1CCCC1CNc1nc(-c2c(F)cccc2F)nn2c(Cl)cnc12` (stereo not shown) [Example #15, 7-chloro-2-(2,6-difluorophenyl)-N-((1-ethylpyrrolidin-2-yl)methyl)imidazo[2,1-f][1,2,4]triazin-4-amine], for which the IC50 is less than 200 nM.

`Fc1cccc(F)c1-c1nc(NC2CCNCC2)c2ncc(Cl)n2n1` [Example #16, [7-Chloro-2-(2,6-difluoro-phenyl)-imidazo[2,1-f][1,2,4]triazin-4-yl]-piperidin-4-yl-amine] showed an IC50 of less than 20 nM.

`CN1CCC(CNc2nc(-c3c(F)cccc3F)nn3c(Cl)cnc23)CC1` [Example #17, [7-Chloro-2-(2,6-difluoro-phenyl)-imidazo[2,1-f][1,2,4]triazin-4-yl]-(1-methyl-piperidin-4-ylmethyl)-amine] returned an IC50 of less than 20 nM.

`Fc1cccc(F)c1-c1nc(NC2CN3CCC2CC3)c2ncc(Cl)n2n1` (stereo not shown) [Example #18, (1-Aza-bicyclo[2.2.2]oct-3-yl)-[7-chloro-2-(2,6-difluoro-phenyl)-imidazo[2,1-f][1,2,4]triazin-4-yl]-amine]: the IC50 was less than 200 nM.

`Fc1cccc(F)c1-c1nc(NCCN2CCOCC2)c2ncc(Cl)n2n1` [Example #19, [7-Chloro-2-(2,6-difluoro-phenyl)-imidazo[2,1-f][1,2,4]triazin-4-yl]-(2-morpholin-4-yl-ethyl)-amine]: the IC50 was less than 200 nM.

In turn, `CC(C)(C)OC(=O)N1CCCC(CNc2nc(-c3c(F)cccc3F)nn3c(Cl)cnc23)C1` (stereo not shown) [Example #20, tert-butyl 3-(((7-chloro-2-(2,6-difluorophenyl)imidazo[2,1-f][1,2,4]triazin-4-yl)amino)methyl)piperidine-1-carboxylate] gave an IC50 of less than 200 nM.

For `Fc1cccc(F)c1-c1nc(NCC2CCNCC2)c2ncc(Cl)n2n1` [Example #21, 7-chloro-2-(2,6-difluorophenyl)-N-(piperidin-4-ylmethyl)imidazo[2,1-f][1,2,4]triazin-4-amine], the IC50 was less than 200 nM.

In turn, `Fc1cccc(F)c1-c1nc(NCC2CCCNC2)c2ncc(Cl)n2n1` (stereo not shown) [Example #22, 7-chloro-2-(2,6-difluorophenyl)-N-(piperidin-3-ylmethyl)imidazo[2,1-f][1,2,4]triazin-4-amine] came in with a concentration for half-maximal inhibition (IC50) of less than 200 nM.

`NC1CCC(Nc2nc(-c3c(F)cccc3F)nn3c(Cl)cnc23)C1` (stereo not shown) [Example #24, N1-(7-chloro-2-(2,6-difluorophenyl)imidazo[2,1-f][1,2,4]triazin-4-yl)cyclopentane-1,3-diamine] registered an IC50 of less than 20 nM.

On to `Fc1cccc(Cl)c1-c1nc(N[C@H]2CC[C@H](N3CCOCC3)CC2)c2ncc(Cl)n2n1` [Example #27, 7-chloro-2-(2-chloro-6-fluorophenyl)-N-((1r,4r)-4-morpholinocyclohexyl)imidazo[2,1-f][1,2,4]triazin-4-amine], for which the half-maximal inhibitory concentration (IC50) was less than 20 nM.

`Clc1cccc(Cl)c1-c1nc(N[C@H]2CC[C@H](N3CCOCC3)CC2)c2ncc(Cl)n2n1` [Example #28, 7-chloro-2-(2,6-dichlorophenyl)-N-((1r,4r)-4-morpholinocyclohexyl)imidazo[2,1-f][1,2,4]triazin-4-amine]: the IC50 was less than 20 nM.

For the compound `OCCN[C@H]1CC[C@H](Nc2nc(-c3c(F)cccc3F)nn3c(Cl)cnc23)CC1` [Example #32, 2-(((1r,4r)-4-((7-chloro-2-(2,6-difluorophenyl)imidazo[2,1-f][1,2,4]triazin-4-yl)amino)cyclohexyl)amino)ethan-1-ol], the IC50 is less than 20 nM.

Compound `Fc1cccc(F)c1-c1nc(NCc2cccnc2)c2ncc(Cl)n2n1` [Example #36, 7-chloro-2-(2,6-difluorophenyl)-N-(pyridin-3-ylmethyl)imidazo[2,1-f][1,2,4]triazin-4-amine] registered an IC50 of less than 200 nM.

`Cc1cc(C)c(CNc2nc(-c3c(F)cccc3F)nn3c(Cl)cnc23)cn1` [Example #37, 7-chloro-2-(2,6-difluorophenyl)-N-((4,6-dimethylpyridin-3-yl)methyl)imidazo[2,1-f][1,2,4]triazin-4-amine] registered a concentration for half-maximal inhibition (IC50) of less than 200 nM.

In turn, `CN1CCN([C@H]2CC[C@H](Nc3nc(-c4c(F)cccc4F)nn4c(Cl)cnc34)CC2)CC1` [Example #38, 7-chloro-2-(2,6-difluorophenyl)-N-((1r,4r)-4-(4-methylpiperazin-1-yl)cyclohexyl)imidazo[2,1-f][1,2,4]triazin-4-amine] yielded an IC50 of less than 20 nM.
